These results are taken from patent publication US9458110B2, “Phenylpyrazole derivatives as potent ROCK1 and ROCK2 inhibitors” (BRISTOL-MYERS SQUIBB COMPANY, priority 2013, dated 2016).

Like-named read-outs stand apart in the source and are kept apart here.

The test system of experiment [1] is rat models of hypertension. The settings on record: cited from earlier work.
A further experiment has as its system neointimal formation. The note with it: rats, balloon injury model; cited from earlier work.
For experiment [2], the system named is congestive heart failure in Dahl salt-sensitive rats. The note with it: cited from earlier work.
The test system of experiment [3] is IL-1 beta-induced coronary stenosis. The settings on record: long term treatment; cited from earlier work.
The target in a further experiment is ROCK1 (Homo sapiens (Human), UniProt Q13464). Description: ROCK assay (Caliper LABCHIP peptide phosphorylation), ROCK1.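 Note: Read-out is separation of phosphorylated from unphosphorylated peptide, with kinase activity inhibition computed at every concentration of a dose-response series.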 Format: biochemical. The note with it: 5 μM ATP, 1.5 μM peptide substrate.
Sequence of ROCK1 (Q13464 whole entry, species assumed): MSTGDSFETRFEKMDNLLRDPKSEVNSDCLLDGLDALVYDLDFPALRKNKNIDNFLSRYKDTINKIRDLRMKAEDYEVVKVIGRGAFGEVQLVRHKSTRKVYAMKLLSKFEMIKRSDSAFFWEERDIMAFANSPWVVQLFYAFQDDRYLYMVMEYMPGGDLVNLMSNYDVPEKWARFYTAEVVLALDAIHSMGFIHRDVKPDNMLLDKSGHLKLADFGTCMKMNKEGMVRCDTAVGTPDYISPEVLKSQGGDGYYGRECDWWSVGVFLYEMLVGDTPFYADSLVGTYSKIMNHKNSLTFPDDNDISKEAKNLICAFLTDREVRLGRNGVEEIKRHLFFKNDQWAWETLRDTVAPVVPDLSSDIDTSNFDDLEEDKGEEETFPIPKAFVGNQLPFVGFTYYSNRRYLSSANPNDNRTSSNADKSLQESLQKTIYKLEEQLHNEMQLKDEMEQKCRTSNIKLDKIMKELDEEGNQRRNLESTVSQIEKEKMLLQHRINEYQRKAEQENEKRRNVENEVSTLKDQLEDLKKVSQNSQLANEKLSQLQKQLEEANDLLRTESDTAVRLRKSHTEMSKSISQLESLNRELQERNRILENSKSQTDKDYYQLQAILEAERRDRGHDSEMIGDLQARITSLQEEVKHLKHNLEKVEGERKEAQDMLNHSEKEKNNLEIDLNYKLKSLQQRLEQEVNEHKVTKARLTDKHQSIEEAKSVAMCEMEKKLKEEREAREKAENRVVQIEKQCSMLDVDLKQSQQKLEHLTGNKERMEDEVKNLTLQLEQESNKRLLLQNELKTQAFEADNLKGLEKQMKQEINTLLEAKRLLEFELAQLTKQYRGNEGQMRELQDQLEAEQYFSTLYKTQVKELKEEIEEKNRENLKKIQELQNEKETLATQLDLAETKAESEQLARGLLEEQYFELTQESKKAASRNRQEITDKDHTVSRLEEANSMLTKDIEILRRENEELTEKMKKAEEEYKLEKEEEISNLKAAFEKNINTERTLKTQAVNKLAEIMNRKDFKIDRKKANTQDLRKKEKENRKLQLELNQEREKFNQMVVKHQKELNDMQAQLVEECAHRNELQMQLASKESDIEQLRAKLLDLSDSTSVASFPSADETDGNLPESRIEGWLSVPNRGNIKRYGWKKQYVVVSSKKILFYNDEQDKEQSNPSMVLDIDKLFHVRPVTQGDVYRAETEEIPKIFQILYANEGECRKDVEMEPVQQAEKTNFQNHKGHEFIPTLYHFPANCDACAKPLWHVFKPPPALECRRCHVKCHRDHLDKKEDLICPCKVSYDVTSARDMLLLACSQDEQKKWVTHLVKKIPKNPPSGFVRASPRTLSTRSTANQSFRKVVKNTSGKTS
Another experiment deals with ROCK2 (Homo sapiens (Human), UniProt O75116). As to the kind of experiment: ROCK assay (Caliper LABCHIP peptide phosphorylation), ROCK2.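 Note: reaction stopped with EDTA, then phosphorylated and unphosphorylated peptide resolved by microfluidic electrophoresis, kinase inhibition computed at each compound concentration in dose-response series, DMSO under 2%.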 The experiment is classed as biochemical. The note with it: 5 μM ATP, 1.5 μM peptide substrate.
Sequence of ROCK2 (O75116 whole entry, species assumed): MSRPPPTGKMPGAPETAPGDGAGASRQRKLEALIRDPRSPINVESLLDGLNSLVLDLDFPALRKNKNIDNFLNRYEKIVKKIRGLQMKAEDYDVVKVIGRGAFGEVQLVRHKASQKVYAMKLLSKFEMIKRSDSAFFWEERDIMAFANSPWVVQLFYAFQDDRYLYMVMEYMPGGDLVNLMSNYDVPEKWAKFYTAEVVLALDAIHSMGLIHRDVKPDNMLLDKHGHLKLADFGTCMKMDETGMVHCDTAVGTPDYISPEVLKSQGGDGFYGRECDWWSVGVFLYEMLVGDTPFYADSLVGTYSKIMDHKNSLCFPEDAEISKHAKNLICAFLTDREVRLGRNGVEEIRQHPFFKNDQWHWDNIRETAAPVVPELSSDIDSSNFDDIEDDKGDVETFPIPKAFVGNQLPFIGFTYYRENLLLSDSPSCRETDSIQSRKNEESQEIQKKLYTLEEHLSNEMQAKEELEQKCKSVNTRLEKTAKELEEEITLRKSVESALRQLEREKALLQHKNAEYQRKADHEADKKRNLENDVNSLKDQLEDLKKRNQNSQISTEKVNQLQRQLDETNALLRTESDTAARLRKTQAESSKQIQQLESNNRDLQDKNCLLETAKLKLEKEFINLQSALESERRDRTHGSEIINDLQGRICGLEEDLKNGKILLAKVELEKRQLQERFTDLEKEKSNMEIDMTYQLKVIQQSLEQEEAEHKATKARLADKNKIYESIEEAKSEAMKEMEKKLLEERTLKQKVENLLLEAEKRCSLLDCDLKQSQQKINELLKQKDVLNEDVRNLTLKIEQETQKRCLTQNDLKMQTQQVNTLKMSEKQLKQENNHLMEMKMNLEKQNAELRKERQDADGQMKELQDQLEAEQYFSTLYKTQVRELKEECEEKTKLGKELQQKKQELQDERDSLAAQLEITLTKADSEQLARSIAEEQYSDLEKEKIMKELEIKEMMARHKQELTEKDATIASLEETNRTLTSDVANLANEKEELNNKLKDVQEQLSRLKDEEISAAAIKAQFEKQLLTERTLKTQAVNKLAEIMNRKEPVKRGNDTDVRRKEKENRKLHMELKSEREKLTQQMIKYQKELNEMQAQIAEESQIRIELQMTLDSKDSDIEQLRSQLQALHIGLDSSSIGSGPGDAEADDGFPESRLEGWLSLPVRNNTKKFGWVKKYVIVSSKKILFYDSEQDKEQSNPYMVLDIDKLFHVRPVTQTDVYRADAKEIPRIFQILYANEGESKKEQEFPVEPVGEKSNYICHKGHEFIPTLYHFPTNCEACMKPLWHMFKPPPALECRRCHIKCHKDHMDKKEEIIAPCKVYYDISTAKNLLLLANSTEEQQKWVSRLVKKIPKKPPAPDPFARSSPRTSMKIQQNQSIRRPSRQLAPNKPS

As to `C[C@@H](N)[C@H]1CC[C@H](C(=O)Nc2ccncc2)CC1` [Example Y-27632], the blood pressure result in experiment [1] (control rats) is recorded as “only a minor effect on blood pressure”; in experiment [1] (spontaneously hypertensive rat, renal hypertensive rat and deoxycortisone acetate salt hypertensive rat models), “significantly decrease blood pressure”. Moreover, in the experiment with neointimal formation, the neointimal formation result is “inhibited neointimal formation”. Further, the “ventricular hypertrophy, fibrosis and function” value in experiment [2] is “improve ventricular hypertrophy, fibrosis and function”.

With `O=S(=O)(c1cccc2cnccc12)N1CCCNCC1` [fasudil], in experiment [3], the “coronary stenosis and coronary constrictive remodeling” value is on record as “progressively reduce coronary stenosis, as well as promote a regression of coronary constrictive remodeling”.

For `COc1cc(C(=O)NCc2c(F)ccc(F)c2Cl)ccc1-c1cn[nH]c1` [Example 88, N-[(2-chloro-3,6-difluorophenyl)methyl]-3-methoxy-4-(1H-pyrazol-4-yl)benzamide], the half-maximal inhibitory concentration (IC50) against ROCK1 was determined as 8.46 nM; against ROCK2 it was 3.99 nM.

Take `C=C[C@@H](NC(=O)c1ccc(-c2cn[nH]c2)c(OC)c1)c1c(F)cccc1F` [Example 170, N-[(1R)-1-(2,6-difluorophenyl)prop-2-en-1-yl]-3-methoxy-4-(1H-pyrazol-4-yl)benzamide]: the IC50 at ROCK1 is 17.5 nM; against ROCK2 it was 10.5 nM.

As to `COC(=O)c1n[nH]cc1-c1ccc(C(=O)N[C@H](C)c2cccc(OC)c2)c(OC)c1` [Example 302, (R)-Methyl 4-(3-methoxy-4-((1-(3-methoxyphenyl)ethyl)carbamoyl)phenyl)-1H-pyrazole-3-carboxylate], the IC50 on ROCK1 was 70.9 nM; against ROCK2, 69.6 nM.

Take `COc1cc(C(=O)N[C@H](CNS(C)(=O)=O)c2ccccc2)ccc1-c1cn[nH]c1` [Example 260, N-[(1S)-2-methane-sulfonamido-1-phenylethyl]-3-methoxy-4-(1H-pyrazol-4-yl)benzamide]: the IC50 turned out to be 6.62 nM against ROCK1 and 1.9 nM at ROCK2.

Consider `CC(O)c1cc(C(=O)NC(C)c2c(F)cccc2F)ccc1-c1cn[nH]c1` (centres unmarked) [Example 287, N-[1-(2,6-difluorophenyl)ethyl]-3-(1-hydroxyethyl)-4-(1H-pyrazol-4-yl)benzamide], for which the IC50 against ROCK1 was found to be 111 nM; against ROCK2, 27.8 nM.

Consider `COc1cc(C(=O)NCc2ccc3sccc3c2)ccc1-c1cn[nH]c1` [Example 104, N-(1-benzothiophen-5-ylmethyl)-3-methoxy-4-(1H-pyrazol-4-yl)benzamide], for which the figures for the IC50 on ROCK1 and against ROCK2 were 24.9 nM and 9.44 nM, respectively.

Turning to `COC(=O)C[C@@H](NC(=O)c1ccc(-c2cn[nH]c2)c(C)c1)c1ccccc1` [Example 155, methyl (3R)-3-{[3-methyl-4-(1H-pyrazol-4-yl)phenyl] formamido}-3-phenyl-propanoate], the IC50 against ROCK1 was 405 nM; on ROCK2, 70.2 nM.

In the case of `COc1cccc([C@@H](C)NC(=O)c2ccc(-c3c[nH]nc3C(C)O)cc2OC)c1` (stereo partly drawn) [Example 307, 4-(3-(1-Hydroxyethyl)-1H-pyrazol-4-yl)-2-methoxy-N-((R)-1-(3-methoxyphenyl)ethyl)benzamide], the results for the IC50 against ROCK1 and on ROCK2 were 544 nM and 205 nM, respectively.

Consider `COc1cc(C(=O)NCc2cccc(C(=O)NC3CCN(C)CC3)c2)ccc1-c1cn[nH]c1` [Example 248, 3-methoxy-N-({3-[(1-methylpiperidin-4-yl)carbamoyl]phenyl}methyl)-4-(1H-pyrazol-4-yl)benzamide], for which the IC50 at ROCK1 was 0.43 nM; at ROCK2, 0.19 nM.

`CC(O)c1cc(C(=O)NC(C)c2ccccc2F)ccc1-c1cn[nH]c1` (centres unmarked) [Example 278, N-[1-(2-fluorophenyl)ethyl]-3-(1-hydroxyethyl)-4-(1H-pyrazol-4-yl)benzamide]: the results for the IC50 against ROCK1 and on ROCK2 were 1780 nM and 1320 nM, respectively.

On to `Cc1cc(C(=O)N[C@H](CC(=O)O)c2ccccc2)ccc1-c1cn[nH]c1` [Example 251, (3R)-3-{[3-Methyl-4-(1H-pyrazol-4-yl)phenyl]formamido}-3-phenylpropanoic acid], for which the figures for the IC50 at ROCK1 and against ROCK2 were 45.7 nM and 33.7 nM, respectively.

In the case of `Cc1cc(C(=O)NCc2cccc(C(=O)O)c2)ccc1-c1cn[nH]c1` [Example 239, 3-({[3-methyl-4-(1H-pyrazol-4-yl)phenyl] formamido}methyl) benzoic acid], the IC50 against ROCK1 came to 61.4 nM; at ROCK2, 11.5 nM.

Turning to `N#Cc1cc(C(=O)N[C@H](CO)c2ccccc2)ccc1-c1cn[nH]c1` [Example 194, 3-cyano-N-[(1S)-2-hydroxy-1-phenylethyl]-4-(1H-pyrazol-4-yl)benzamide], the values for the IC50 against ROCK1 and at ROCK2 were 510 nM and 152 nM, respectively.

For the compound `COc1cccc(CNC(=O)c2ccc(-c3c[nH]nc3C)c(OC)c2)c1` [Example 56, 3-Methoxy-N-(3-methoxybenzyl)-4-(3-methyl-1H-pyrazol-4-yl)benzamide], the IC50 at ROCK1 came out at 461 nM; on ROCK2, 204 nM.

With `COc1cc(C(=O)N[C@H](CNS(=O)(=O)C2CC2)c2ccccc2)ccc1-c1cn[nH]c1` [Example 261, N-[(1S)-2-cyclopropane-sulfonamido-1-phenylethyl]-3-methoxy-4-(1H-pyrazol-4-yl)benzamide], the half-inhibitory concentration (IC50) is 11.3 nM at ROCK1 and 2.89 nM at ROCK2.

On to `CCNC[C@@H](NC(=O)c1ccc(-c2cn[nH]c2)c(OC)c1)c1c(F)cccc1F` [Example 265, N-[(1S)-1-(2,6-Difluorophenyl)-2-(ethylamino)ethyl]-3-methoxy-4-(1H-pyrazol-4-yl)benzamide], for which the figures for the IC50 against ROCK1 and on ROCK2 were 2.26 nM and 1.29 nM, respectively.

Turning to `COc1cccc(CNC(=O)c2ccc(-c3cn[nH]c3)cc2N)c1` [Example 214, 2-amino-N-[(3-methoxyphenyl)methyl]-4-(1H-pyrazol-4-yl)benzamide], the IC50 against ROCK1 came out at 131 nM; against ROCK2 it was 32.3 nM.

In the case of `C[C@@H](NC(=O)c1ccc(-c2cn[nH]c2)c(OCC(C)(C)O)c1)c1ccccc1` [Example 154, 3-(2-hydroxy-2-methylpropoxy)-N-[(1R)-1-phenylethyl]-4-(1H-pyrazol-4-yl)benzamide], the IC50 turned out to be 1790 nM at ROCK1 and 452 nM against ROCK2.

With `COc1cc(C(=O)NCc2cccc(NS(C)(=O)=O)c2)ccc1-c1cn[nH]c1` [Example 94, N-[(3-methanesulfon-amidophenyl)methyl]-3-methoxy-4-(1H-pyrazol-4-yl)benzamide], the IC50 against ROCK1 came to 24.6 nM; against ROCK2, 6.33 nM.

With `COc1cc(C(=O)NCc2cccc(F)c2)ccc1-c1cn[nH]c1` [Example 17, N-(3-fluorobenzyl)-3-methoxy-4-(1H-pyrazol-4-yl)benzamide], the IC50 amounted to 8.42 nM on ROCK1 and 4.01 nM at ROCK2.

In the case of `COc1ccc(F)c(C(C)NC(=O)c2ccc(-c3cn[nH]c3)cc2OC)c1` (centres unmarked) [Example 228, N-[1-(2-fluoro-5-methoxyphenyl)ethyl]-2-methoxy-4-(1H-pyrazol-4-yl)benzamide], the IC50 against ROCK1 was 12.5 nM; on ROCK2, 3.05 nM.

For the compound `COc1c(-c2cn[nH]c2)ccc(C(=O)N[C@H](CO)c2c(F)cccc2F)c1F` [Example 199, N-[(1S)-1-(2,6-difluorophenyl)-2-hydroxyethyl]-2-fluoro-3-methoxy-4-(1H-pyrazol-4-yl)benzamide], the values for the IC50 against ROCK1 and against ROCK2 were 219 nM and 21.6 nM, respectively.

As to `COc1cc(C(=O)NCC(C#N)c2ccccc2)ccc1-c1cn[nH]c1` (centres unmarked) [Example 118, N-(2-cyano-2-phenylethyl)-3-methoxy-4-(1H-pyrazol-4-yl)benzamide], the IC50 on ROCK1 worked out at 38.7 nM; against ROCK2 it was 27.7 nM.

With `COc1cc(C(=O)N[C@H](C)[C@@H](O)c2ccccc2)ccc1-c1cn[nH]c1` [Example 42, N-((1S,2R)-1-hydroxy-1-phenylpropan-2-yl)-3-methoxy-4-(1H-pyrazol-4-yl)benzamide], the IC50 on ROCK1 was determined as 26.3 nM; on ROCK2 it was 11 nM.

Take `COc1cc(C(=O)NCc2ccc(Oc3ccccc3)cc2Cl)ccc1-c1cn[nH]c1` [Example 48, N-(2-chloro-4-phenoxybenzyl)-3-methoxy-4-(1H-pyrazol-4-yl)benzamide]: the IC50 against ROCK1 is 663 nM; against ROCK2 it was 1320 nM.

On to `CCOc1cc(C(=O)N[C@H](C)c2ccc(F)cc2)ccc1-c1cn[nH]c1` [Example 191, 3-ethoxy-N-[(1R)-1-(4-fluorophenyl)ethyl]-4-(1H-pyrazol-4-yl)benzamide], for which the IC50 at ROCK1 worked out at 205 nM; against ROCK2 it was 74.6 nM.

Turning to `COc1cc(-c2cn[nH]c2)ccc1C(=O)NC(C)c1c(F)cccc1F` (centres unmarked) [Example 227, N-[1-(2,6-difluorophenyl)ethyl]-2-methoxy-4-(1H-pyrazol-4-yl)benzamide], the IC50 against ROCK1 is over 2000 nM; against ROCK2 it was 1200 nM.

Turning to `COc1cc(C(=O)NC(C)c2cccc(CN3CCN(C)CC3)c2)ccc1-c1cn[nH]c1` (racemic) [Example 81, (+/−)-3-methoxy-N-(1-(3-((4-methylpiperazin-1-yl)methyl)phenyl)ethyl)-4-(1H-pyrazol-4-yl)benzamide], the IC50 is 156 nM against ROCK1 and 28.3 nM against ROCK2.

As to `COc1cc(C(=O)N[C@@H](Cc2ccccc2)C(N)=O)ccc1-c1cn[nH]c1` [Example 115, (2S)-2-{[3-methoxy-4-(1H-pyrazol-4-yl)phenyl] formamido}-3-phenyl-propanamide], the IC50 on ROCK1 turned out to be 37.4 nM; at ROCK2, 14 nM.

Consider `COc1cc(C(=O)NCc2c(F)ccc(OC)c2F)ccc1-c1cn[nH]c1` [Example 51, N-(2,6-difluoro-3-methoxybenzyl)-3-methoxy-4-(1H-pyrazol-4-yl)benzamide], for which the results for the IC50 at ROCK1 and at ROCK2 were 14.8 nM and 5.35 nM, respectively.
